Experimental data taken from patent US7915420B2, “Aryl piperidine amides” (Janssen Pharmaceutica NV, priority 2003, dated 2011).

target: T1, human glycine transporter-2 (GlyT2) (Homo sapiens, UniProt Q9Y345); test: GlyT2 inhibitory activity: inhibition of [14C]-glycine uptake in COS-7 cells transfected with human GlyT2; type: cell-based; details: Cos-7 cells stably transfected with human GlyT2; 20 μM 14C-glycine, 2 h at 37° C.
T1 construct: The entire coding region of the human GlyT2 cDNA was cloned into the mammalian expression vector pCINeo; expressed in transfected cells; host or cells: Cos-7 cells (African green monkey kidney), stably transfected, vector pCINeo, G418 selection
T1 sequence (Q9Y345 1-797): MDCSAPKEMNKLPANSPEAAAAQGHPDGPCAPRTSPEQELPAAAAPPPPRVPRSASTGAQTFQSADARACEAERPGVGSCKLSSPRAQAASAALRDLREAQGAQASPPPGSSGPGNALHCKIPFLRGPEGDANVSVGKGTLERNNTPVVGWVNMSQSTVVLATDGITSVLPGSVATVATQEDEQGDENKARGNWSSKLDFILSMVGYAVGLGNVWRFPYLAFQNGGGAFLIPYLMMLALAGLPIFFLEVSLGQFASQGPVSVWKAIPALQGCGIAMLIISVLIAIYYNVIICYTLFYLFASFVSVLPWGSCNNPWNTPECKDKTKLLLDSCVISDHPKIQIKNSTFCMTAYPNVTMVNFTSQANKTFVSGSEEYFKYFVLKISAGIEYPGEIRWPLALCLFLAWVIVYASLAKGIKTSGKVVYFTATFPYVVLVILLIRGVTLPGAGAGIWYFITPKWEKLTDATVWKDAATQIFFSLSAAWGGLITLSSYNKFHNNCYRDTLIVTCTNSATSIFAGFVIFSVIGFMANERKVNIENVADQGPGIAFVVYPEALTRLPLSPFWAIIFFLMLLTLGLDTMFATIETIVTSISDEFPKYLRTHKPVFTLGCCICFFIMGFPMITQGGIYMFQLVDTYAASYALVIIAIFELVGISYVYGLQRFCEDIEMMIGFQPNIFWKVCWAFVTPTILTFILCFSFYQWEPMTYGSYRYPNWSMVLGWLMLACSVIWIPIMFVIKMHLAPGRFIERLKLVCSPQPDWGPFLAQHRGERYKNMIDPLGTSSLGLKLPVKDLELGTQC
Protocol: GlyT2 antagonist activity of representative compounds of the invention was determined in accordance with the assay described in the Examples and by measuring the ability of compounds to inhibit the uptake of [^14C]-glycine in COS-7 cells transfected with the human glycine transporter-2 (GlyT2). The GlyT2 antagonist activities of these representative compounds are set forth hereinafter in Table 1.
Cos-7 cells (African green monkey, kidney) from American Type Culture Collection were grown in DMEM supplemented with 10% fetal bovine serum. The entire coding region of the human GlyT2 cDNA was cloned into the mammalian expression vector pCINeo, and then stably transfected into Cos-7 cells. Transfection was performed essentially as described by T. W. Lovenberg et al. (Mol. Pharmacol. 1999, 55:1101-1107). Cells are grown to 70-80% confluence, removed from the plate with trypsin, and pelleted in a clinical centrifuge. The pellet is resuspended in 400 μL complete medium and transferred to an electroporation cuvette with a 0.4 cm gap between the electrodes (Bio-Rad, 165-2088). One microgram of supercoiled GlyT2 cDNA is added to the cells, and the suspension is mixed. The voltage for the electroporation is set at 0.25 kV, and the capacitance is set at 960 μF. After electroporation, the cuvette contents are diluted to 10 mL with complete medium, and 0.5 mL, 1.0 mL, 2.0 mL and remainder (−6.5 mL) portions are plated onto four 10-cm dishes. The cells are incubated 24 h before adding 600 μg/mL G418. Colonies that survive selection are isolated and tested for GlyT2 expression.
The day before the assay, the GlyT2 expressing cells were plated into 96-well scintillating microplates (Amersham, RPNQ 0160) at a density of approximately 20,000 cells per well. Cells were grown overnight at 37° C. in 5% CO2 and then washed once with 37° C. HEPES buffered saline (HBS: 150 mM NaCl, 20 mM HEPES, 1 mM CaCl2, 10 mM glucose, 5 mM KCl, 1 mM MgCl2; pH 7.4). Eighty microliters of 37° C. HBS was subsequently added to each well. Test solutions of GlyT2 inhibitors were prepared in HBS from DMSO stock solutions, and 5 μL of test solution was added to each test well. Total transport and non-specific background were determined by adding 5 μL HBS or 5 μL 2 M glycine, respectively, to the appropriate control wells. Plates were then left at room temperature for 5 min before the addition of 20 μL of 100 μM ^14C-glycine (NEN, NEC 048H) to each well for a final concentration of 20 μM. Plates were incubated for 2 h at 37° C. with 5% CO2. After 2 h the reaction mixtures were removed by aspiration, and the plates were washed once with ice-cold HBS. Plates were sealed with TopSeal (Packard, 6005185) and counted on a Packard TopCount® scintillation counter.

| SMILES | IC50 [µM] |
| --- | --- |
| CC(C)Oc1cccc(NCCN(C)Cc2cccc(C(=O)N3CCCCC3)c2)c1 [Example 30, [3-({[2-(3-Isopropoxy-phenylamino)-ethyl]-methyl-amino}-methyl)-phenyl]-piperidin-1-yl-methanone] | 1 |
| CC(C)Oc1cccc(N(C)CCN(C)Cc2cccc(C(=O)N3CCCCC3)c2)c1 [Example 31, {3-[({2-[(3-Isopropoxy-phenyl)-methyl-amino]-ethyl}-methyl-amino)-methyl]-phenyl}-piperidin-1-yl-methanone] | 1.6 |
| CC(C)Oc1ccccc1CCCNCc1cccc(C(=O)N2CCCCC2)c1 [Example 33, (3-{[3-(2-Isopropoxy-phenyl)-propylamino]-methyl}-phenyl)-piperidin-1-yl-methanone] | 4 |
| CC(C)Oc1ccccc1NCCNCc1cc(C(=O)N2CCCCC2)cs1 [Example 34, (5-{[2-(2-Isopropoxy-phenylamino)-ethylamino]-methyl}-thiophen-3-yl)-piperidin-1-yl-Methanone] | 3.1 |
| Nc1ccccc1NCCNCc1cc(C(=O)N2CCCCC2)cs1 [Example 35, (5-{[2-(2-Amino-phenylamino)-ethylamino]-methyl}-thiophen-3-yl)-piperidin-1-yl-methanone] | > 10 |
| CC(C)Nc1ccccc1NCCNCc1cc(C(=O)N2CCCCC2)cs1 [Example 36, (5-{[2-(2-Isopropylamino-phenylamino)-ethylamino]-methyl}-thiophen-3-yl)-piperidinyl-methanone] | 3.1 |
| CC(C)Oc1ccccc1NCCNCc1cccc(C(=O)N2CCCC2)c1 [Example 38, (3-{[2-(2-Isopropoxy-phenylamino)-ethylamino]-methyl}-phenyl)-pyrrolidin-1-yl-methanone] | 3 |
| CC(C)Oc1ccccc1NCCNCc1cccc(C(=O)N2CCCCCC2)c1 [Example 39, Azepan-1-yl-(3-{[2-(2-isopropoxy-phenylamino)-ethylamino]-methyl}-phenyl)methanone.] | 1.8 |
| CC(C)Oc1ccccc1NCCNCc1cccc(C(=O)N2CCC(O)CC2)c1 [Example 41, (4-Hydroxy-piperidin-1-yl)-(3-{[2-(2-isopropoxy-phenylamino)-ethylamino]-methyl}-phenyl)-methanone] | > 10 |
